Values after ≈ are worked out from the molar mass of the structure shown. Each block holds one compound with its values, some of them ahead of it. Active and inactive are the calls of the source. The calls are words filed in the database; no cut-off is given here.
Experiments:
Bacillus subtilis [1] = assay: Antibacterial activity against Bacillus subtilis JN934392 assessed as diameter of inhibition zone at 15 microg/well by agar well diffusion method; assay type: functional; conditions: read-out: DIZ
Escherichia coli [2] = assay: Antibacterial activity against Escherichia coli ATCC 25922 assessed as diameter of inhibition zone at 15 microg/well by agar well diffusion method; assay type: functional; conditions: read-out: DIZ
Listeria monocytogenes [3] = assay: Antibacterial activity against Listeria monocytogenes assessed as diameter of inhibition zone at 15 microg/well by agar well diffusion method; assay type: functional; conditions: read-out: DIZ
Bacillus cereus [4] = assay: Antibacterial activity against Bacillus cereus JN934390 assessed as diameter of inhibition zone at 15 microg/well by agar well diffusion method; assay type: functional; conditions: read-out: DIZ
Klebsiella pneumoniae [5] = assay: Antibacterial activity against Klebsiella pneumoniae assessed as diameter of inhibition zone at 15 microg/well by agar well diffusion method; assay type: functional; conditions: read-out: DIZ
Staphylococcus aureus [6] = assay: Antibacterial activity against Staphylococcus aureus ATCC 6538 assessed as diameter of inhibition zone at 15 microg/well by agar well diffusion method; assay type: functional; conditions: read-out: DIZ
Micrococcus luteus [7] = assay: Antibacterial activity against Micrococcus luteus assessed as diameter of inhibition zone at 15 microg/well by agar well diffusion method; assay type: functional; conditions: read-out: DIZ
Salmonella enteritidis [8] = assay: Antibacterial activity against Salmonella enterica serotype Enteritidis ATCC 43972 assessed as diameter of inhibition zone at 15 microg/well by agar well diffusion method; assay type: functional, Salmonella enterica subsp. enterica serovar Enteritidis; conditions: read-out: DIZ
Staphylococcus aureus [9] = assay: Antibacterial activity against Staphylococcus aureus ATCC 6538 assessed as diameter of inhibition zone at 125 mg/ml by agar well diffusion method; assay type: functional; conditions: read-out: DIZ
[10] = Antioxidant activity assessed as DPPH free radical scavenging activity at 2.5 mg/ml incubated for 20 mins in dark (reference value: 1 to 9%); assay type: functional
Klebsiella pneumoniae [11] = assay: Antibacterial activity against Klebsiella pneumoniae after 24 hrs by MTT dye based microdilution method; assay type: functional
[12] = Antioxidant activity assessed as reduction in beta-carotene/linoleic acid bleaching activity after 2 hrs by spectrophotometric method; assay type: functional
[13] = Antioxidant activity assessed as DPPH free radical scavenging activity at 3 mg/ml incubated for 20 mins in dark (reference value: 1 to 9%); assay type: functional
Salmonella enteritidis [14] = assay: Bactericidal activity against Salmonella enterica serotype Enteritidis ATCC 43972 after 48 hrs by MTT dye based microdilution method; assay type: functional, Salmonella enterica subsp. enterica serovar Enteritidis; conditions: ATCC 43972, 48 h
[15] = Antioxidant activity assessed as reduction in beta-carotene/linoleic acid bleaching activity at 2 mg/ml after 2 hrs by spectrophotometric method (reference value: 1 to 8%); assay type: functional; set-up: scale not given: the % may be the effect or the level left
Bacillus subtilis [16] = assay: Bactericidal activity against Bacillus subtilis JN934392 after 48 hrs by MTT dye based microdilution method; assay type: functional; conditions: JN934392, 48 h
Bacillus cereus [17] = assay: Bactericidal activity against Bacillus cereus JN934390 after 48 hrs by MTT dye based microdilution method; assay type: functional; conditions: JN934390, 48 h
[18] = Antioxidant activity assessed as ABTS radical scavenging activity at 0.5 mg/ml incubated for 2 hrs in dark by spectrophotometric analysis (reference value: 1 to 9 %); assay type: functional
Bacillus cereus [19] = assay: Antibacterial activity against Bacillus cereus JN934390 after 24 hrs by MTT dye based microdilution method; assay type: functional; conditions: JN934390, 24 h
[20] = Antioxidant activity assessed as ABTS radical scavenging activity at 1 mg/ml incubated for 2 hrs in dark by spectrophotometric analysis (reference value: 1 to 9%); assay type: functional
Micrococcus luteus [21] = assay: Antibacterial activity against Micrococcus luteus assessed as diameter of inhibition zone at 125 mg/ml by agar well diffusion method; assay type: functional; conditions: read-out: DIZ
[22] = Antioxidant activity assessed as reduction in beta-carotene/linoleic acid bleaching activity at 3 mg/ml after 2 hrs by spectrophotometric method (reference value: 1 to 8%); assay type: functional; set-up: scale not given: the % may be the effect or the level left
Staphylococcus aureus [23] = assay: Antibacterial activity against Staphylococcus aureus ATCC 6538 after 24 hrs by MTT dye based microdilution method; assay type: functional; conditions: ATCC 6538, 24 h
Listeria monocytogenes [24] = assay: Antibacterial activity against Listeria monocytogenes after 24 hrs by MTT dye based microdilution method; assay type: functional
[25] = Antioxidant activity assessed as ABTS radical scavenging activity at 2 mg/ml incubated for 2 hrs in dark by spectrophotometric analysis (reference value: 1 to 9%); assay type: functional
[26] = Antioxidant activity assessed as DPPH free radical scavenging activity at 2 mg/ml incubated for 20 mins in dark (reference value: 1 to 9%); assay type: functional
[27] = Antioxidant activity assessed as ABTS radical scavenging activity at 3 mg/ml incubated for 2 hrs in dark by spectrophotometric analysis (reference value: 1 to 9%); assay type: functional
[28] = Antioxidant activity assessed as DPPH free radical scavenging activity at 0.5 mg/ml incubated for 20 mins in dark (reference value: 1 to 9 %); assay type: functional
[29] = Antioxidant activity assessed as ABTS radical scavenging activity incubated for 2 hrs in dark by spectrophotometric analysis; assay type: functional
[30] = Antioxidant activity assessed as DPPH free radical scavenging activity at 1 mg/ml incubated for 20 mins in dark (reference value: 1 to 9%); assay type: functional
Escherichia coli [31] = assay: Antibacterial activity against Escherichia coli ATCC 25922 assessed as diameter of inhibition zone at 125 mg/ml by agar well diffusion method; assay type: functional
Salmonella enteritidis [32] = assay: Antibacterial activity against Salmonella enterica serotype Enteritidis ATCC 43972 assessed as diameter of inhibition zone at 125 mg/ml by agar well diffusion method; assay type: functional, Salmonella enterica subsp. enterica serovar Enteritidis; conditions: read-out: DIZ
Bacillus cereus [33] = assay: Antibacterial activity against Bacillus cereus JN934390 assessed as diameter of inhibition zone at 125 mg/ml by agar well diffusion method; assay type: functional; conditions: read-out: DIZ
Listeria monocytogenes [34] = assay: Antibacterial activity against Listeria monocytogenes assessed as diameter of inhibition zone at 125 mg/ml by agar well diffusion method; assay type: functional; conditions: read-out: DIZ
[35] = Antioxidant activity assessed as ABTS radical scavenging activity at 2.5 mg/ml incubated for 2 hrs in dark by spectrophotometric analysis (reference value: 1 to 9%); assay type: functional
Micrococcus luteus [36] = assay: Antibacterial activity against Micrococcus luteus after 24 hrs by MTT dye based microdilution method; assay type: functional
Klebsiella pneumoniae [37] = assay: Antibacterial activity against Klebsiella pneumoniae assessed as diameter of inhibition zone at 125 mg/ml by agar well diffusion method; assay type: functional; conditions: read-out: DIZ
Salmonella enteritidis [38] = assay: Antibacterial activity against Salmonella enterica serotype Enteritidis ATCC 43972 after 24 hrs by MTT dye based microdilution method; assay type: functional, Salmonella enterica subsp. enterica serovar Enteritidis; conditions: ATCC 43972, 24 h
Staphylococcus aureus [39] = assay: Bactericidal activity against Staphylococcus aureus ATCC 6538 after 48 hrs by MTT dye based microdilution method; assay type: functional; conditions: ATCC 6538, 48 h
Bacillus subtilis [40] = assay: Antibacterial activity against Bacillus subtilis JN934392 after 24 hrs by MTT dye based microdilution method; assay type: functional; conditions: JN934392, 24 h
[41] = Antioxidant activity assessed as reduction in beta-carotene/linoleic acid bleaching activity at 2.5 mg/ml after 2 hrs by spectrophotometric method (reference value: 1 to 8%); assay type: functional; set-up: scale not given: the % may be the effect or the level left
[42] = Antioxidant activity assessed as reduction in beta-carotene/linoleic acid bleaching activity at 0.5 mg/ml after 2 hrs by spectrophotometric method (reference value: 1 to 8 %); assay type: functional; set-up: scale not given: the % may be the effect or the level left
[43] = Antioxidant activity assessed as reduction in beta-carotene/linoleic acid bleaching activity at 1 mg/ml after 2 hrs by spectrophotometric method (reference value: 1 to 8%); assay type: functional; set-up: scale not given: the % may be the effect or the level left
[44] = Antioxidant activity assessed as DPPH free radical scavenging activity incubated for 20 mins in dark; assay type: functional
Bacillus subtilis [45] = assay: Antibacterial activity against Bacillus subtilis JN934392 assessed as diameter of inhibition zone at 125 mg/ml by agar well diffusion method; assay type: functional; conditions: read-out: DIZ
Klebsiella pneumoniae [46] = assay: Bactericidal activity against Klebsiella pneumoniae after 48 hrs by MTT dye based microdilution method; assay type: functional
Listeria monocytogenes [47] = assay: Potency index, ratio of compound DIZ to chloramphenicol DIZ for Listeria monocytogenes; assay type: functional
Listeria monocytogenes [48] = assay: Bactericidal activity against Listeria monocytogenes after 48 hrs by MTT dye based microdilution method; assay type: functional
Micrococcus luteus [49] = assay: Bactericidal activity against Micrococcus luteus after 48 hrs by MTT dye based microdilution method; assay type: functional

SMILES: O=C(N[C@H](CO)[C@H](O)c1ccc([N+](=O)[O-])cc1)C(Cl)Cl [CHLORAMPHENICOL]
zone of inhibition at 15 µg/disc (Bacillus subtilis [1]): 24 mm
zone of inhibition at 15 µg/disc (Escherichia coli [2]): 23.5 mm
zone of inhibition at 15 µg/disc (Listeria monocytogenes [3]): 12 mm
zone of inhibition at 15 µg/disc (Bacillus cereus [4]): 26 mm
zone of inhibition at 15 µg/disc (Klebsiella pneumoniae [5]): 22 mm
zone of inhibition at 15 µg/disc (Staphylococcus aureus [6]): 17 mm
zone of inhibition at 15 µg/disc (Micrococcus luteus [7]): 20 mm
zone of inhibition at 15 µg/disc (Salmonella enteritidis [8]): 16 mm

MIC (Klebsiella pneumoniae [11]): 12500 µg/mL (≈ 28.3 mM)
IC50 [12]: 990 µg/mL (≈ 2.24 mM)
MIC (Bacillus cereus [19]): 6250 µg/mL (≈ 14.2 mM)
MIC (Staphylococcus aureus [23]): 6250 µg/mL (≈ 14.2 mM)
MIC (Listeria monocytogenes [24]): 12500 µg/mL (≈ 28.3 mM)
IC50 [29]: 480 µg/mL (≈ 1.09 mM)
MIC (Micrococcus luteus [36]): 12500 µg/mL (≈ 28.3 mM)
MIC (Salmonella enteritidis [38]): 3120 µg/mL (≈ 7.07 mM)
MIC (Bacillus subtilis [40]): 6250 µg/mL (≈ 14.2 mM)
IC50 [44]: 1120 µg/mL (≈ 2.54 mM)
SMILES: COc1ccc(N2C(=O)[C@H]3[C@H](ON4[C@@H]3C(=O)N(C)[C@@]43C[C@H](C)CC[C@H]3C(C)C)C2=O)cc1
zone of inhibition at 125000 µg/mL (Staphylococcus aureus [9]): 9.66 mm
Activity [10]: 65.3%
Activity [13]: 68.2%
MBC (Salmonella enteritidis [14]): 50000 µg/mL (≈ 113 mM)
Activity [15]: 55.7%
MBC (Bacillus subtilis [16]): 50000 µg/mL (≈ 113 mM)
MBC (Bacillus cereus [17]): 50000 µg/mL (≈ 113 mM)
Activity [18]: 48.9%
Activity [20]: 61%
zone of inhibition at 125000 µg/mL (Micrococcus luteus [21]): 10 mm
Activity [22]: 67.7%
Activity [25]: 68.9%
Activity [26]: 61.7%
Activity [27]: 75.1%
Activity [28]: 32.9%
Activity [30]: 48.1%
diameter of the inhibition zone (DIZ) (Escherichia coli [31]): inactive
zone of inhibition at 125000 µg/mL (Salmonella enteritidis [32]): 15 mm
zone of inhibition at 125000 µg/mL (Bacillus cereus [33]): 12.7 mm
zone of inhibition at 125000 µg/mL (Listeria monocytogenes [34]): 11 mm
Activity [35]: 71.5%
zone of inhibition at 125000 µg/mL (Klebsiella pneumoniae [37]): 9 mm
MBC (Staphylococcus aureus [39]): 50000 µg/mL (≈ 113 mM)
Activity [41]: 59.3%
Activity [42]: 44.5%
Activity [43]: 50%
Activity [44]: Dose-dependent effect
zone of inhibition at 125000 µg/mL (Bacillus subtilis [45]): 11.3 mm

MIC (Klebsiella pneumoniae [11]): 3120 µg/mL (≈ 7.1 mM)
IC50 [12]: 430 µg/mL (≈ 0.978 mM)
MIC (Bacillus cereus [19]): 3120 µg/mL (≈ 7.1 mM)
MIC (Staphylococcus aureus [23]): 6250 µg/mL (≈ 14.2 mM)
MIC (Listeria monocytogenes [24]): 1560 µg/mL (≈ 3.55 mM)
IC50 [29]: 420 µg/mL (≈ 0.956 mM)
MIC (Micrococcus luteus [36]): 6250 µg/mL (≈ 14.2 mM)
MIC (Salmonella enteritidis [38]): 3120 µg/mL (≈ 7.1 mM)
MIC (Bacillus subtilis [40]): 3120 µg/mL (≈ 7.1 mM)
IC50 [44]: 500 µg/mL (≈ 1.14 mM)
SMILES: Cc1ccc(N2C(=O)[C@H]3[C@H](ON4[C@@H]3C(=O)N(C)[C@@]43C[C@H](C)CC[C@H]3C(C)C)C2=O)c(C)c1
MBC (Klebsiella pneumoniae [46]): 6250 µg/mL (≈ 14.2 mM)
Ratio (Listeria monocytogenes [47]): 2
zone of inhibition at 125000 µg/mL (Staphylococcus aureus [9]): 22 mm
Activity [10]: 77.1%
Activity [13]: 73.2 to 89.3%
MBC (Salmonella enteritidis [14]): 12500 µg/mL (≈ 28.4 mM)
Activity [15]: 57%
MBC (Bacillus subtilis [16]): 12500 µg/mL (≈ 28.4 mM)
MBC (Bacillus cereus [17]): 25000 µg/mL (≈ 56.9 mM)
Activity [18]: 52.9%
Activity [20]: 69%
zone of inhibition at 125000 µg/mL (Micrococcus luteus [21]): 9.66 mm
Activity [22]: 71.3%
Activity [25]: 79.4%
Activity [26]: 72%
Activity [27]: 85.8%
Activity [28]: 49.9%
Activity [30]: 57%
MBC (Listeria monocytogenes [48]): 3120 µg/mL (≈ 7.1 mM)
diameter of the inhibition zone (DIZ) (Escherichia coli [31]): inactive
zone of inhibition at 125000 µg/mL (Salmonella enteritidis [32]): 20.3 mm
zone of inhibition at 125000 µg/mL (Bacillus cereus [33]): 21.7 mm
zone of inhibition at 125000 µg/mL (Listeria monocytogenes [34]): 24.7 mm
Activity [35]: 82.6%
zone of inhibition at 125000 µg/mL (Klebsiella pneumoniae [37]): 23 mm
MBC (Staphylococcus aureus [39]): 12500 µg/mL (≈ 28.4 mM)
Activity [41]: 65.6%
Activity [42]: 51%
MBC (Micrococcus luteus [49]): 50000 µg/mL (≈ 114 mM)
Activity [43]: 53.1%
Activity [44]: Dose-dependent effect
zone of inhibition at 125000 µg/mL (Bacillus subtilis [45]): 20.7 mm
